From US20230263822A1, “MODULATION OF FACTOR 11 EXPRESSION” (Ionis Pharmaceuticals, Inc., priority 2008, published 2023)
Strand notation (5' to 3'): a small letter for the sugar, then the base; units joined by * are phosphorothioate-linked, units joined directly phosphodiester-linked; [ ] holds rarer units or linkages, { } end groups; capitals alone tell only the bases. e = 2'-O-(2-methoxyethyl) (MOE); [5mC] = 5-methylcytosine; d = 2'-deoxy (DNA)

Key:
human Factor 11 mRNA [1] = assay: Antisense inhibition of human Factor 11 in HepG2 cells by microwalk gapmers, lipofectin, 75 nM (Example 3); format: cell-based; settings: HepG2 cells, lipofectin, gapmers targeted to nucleobases 1275 to 1318 of SEQ ID NO: 1
Procedure, shortened: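 HepG2 cells (10,000/well) were transfected via lipofectin with 75 nM 20-mer MOE gapmers (phosphorothioate, 5-methyl-C) for about 24 h. Factor 11 mRNA was measured by qRT-PCR, normalized to RIBOGREEN total RNA, and given as percent inhibition versus untreated cells.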

human Factor 11 mRNA [2] = assay: Antisense inhibition of human Factor 11 in HepG2 cells, electroporation, 8,000 nM (Example 30); format: cell-based; settings: electroporation, 8,000 nM antisense oligonucleotide
Procedure, shortened: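 HepG2 cells electroporated with 8,000 nM 5-10-5, 5-8-5 or 6-8-6 MOE gapmers (phosphorothioate, 5-methylcytidine), ~24 h. Factor 11 mRNA quantified by qRT-PCR, normalised to RIBOGREEN total RNA. Reported as percent inhibition versus untreated cells.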

[3] = design: species or system CD1 mice; settings: mouse, in vivo, sc, 50 mg/kg
Protocol: The concentration of the full-length oligonucleotide was measured. The method used is a modification of previously published methods (Leeds et al., 1996; Geary et al., 1999) which consist of a phenol-chloroform (liquid-liquid) extraction followed by a solid phase extraction. An internal standard (ISIS 355868, a 27-mer 2′-O-methoxyethyl modified phosphorothioate oligonucleotide, […], designated herein as SEQ ID NO: 270) was added prior to extraction. […] The results are presented in Table 85 expressed as μg/g liver tissue.

[4] = design: species or system Sprague-Dawley rats; settings: rat, in vivo, sc, 20 mg/kg
Protocol: The concentration of the full-length oligonucleotide as well as the total oligonucleotide concentration (including the degraded form) was measured. The method used is a modification of previously published methods (Leeds et al., 1996; Geary et al., 1999) which consist of a phenol-chloroform (liquid-liquid) extraction followed by a solid phase extraction. An internal standard (ISIS 355868, a 27-mer 2′-O-methoxyethyl modified phosphorothioate oligonucleotide, […], designated herein as SEQ ID NO: 270) was added prior to extraction. […] The results are presented in Tables 91 and 92, expressed as μg/g liver or kidney tissue. Half-lives were then calculated using WinNonlin software ([…]).

[5] = Viscosity of ISIS antisense oligonucleotides, micro-viscometer at 25 °C (Example 47); format: physicochemical; settings: for Concentration: concentration of the viscosity sample, UV reading at 260 nM at 85° C.; for Viscosity: in water, micro-viscometer at 25° C., at the concentration of the same line
Protocol: The viscosity of antisense oligonucleotides targeting human Factor 11 was measured with the aim of screening out antisense oligonucleotides which have a viscosity more than 40 cP at a concentration of 165-185 mg/mL.
ISIS oligonucleotides (32-35 mg) were weighed into a glass vial, 120 μL of water was added and the antisense oligonucleotide was dissolved into solution by heating the vial at 50° C. Part of (75 μL) the pre-heated sample was pipetted to a micro-viscometer (Cambridge). The temperature of the micro-viscometter was set to 25° C. and the viscosity of the sample was measured. Another part (20 μL) of the pre-heated sample was pipetted into 10 mL of water for UV reading at 260 nM at 85° C. (Cary UV instrument).

human Factor 11 mRNA [6] = assay: Dose-dependent inhibition of human Factor 11 in HepG2 cells, electroporation 375-12,000 nM (Example 32); format: cell-based; settings: for Percent inhibition of Factor 11 mRNA at 375 nM / Percent inhibition of Factor 11 mRNA at 750 nM / IC50: electroporation; for Percent inhibition of Factor 11 mRNA at 375 nM / Percent inhibition of Factor 11 mRNA at 750 nM / Percent inhibition of Factor 11 mRNA at 1,500 nM / Percent inhibition of Factor 11 mRNA at 3,000 nM / Percent inhibition of Factor 11 mRNA at 6,000 nM / Percent inhibition of Factor 11 mRNA at 12,000 nM: approx. 16 hours, relative to untreated control cells; for Percent inhibition of Factor 11 mRNA at 1,500 nM: electroporation, 1,500 nM; for Percent inhibition of Factor 11 mRNA at 3,000 nM: electroporation, 3,000 nM; for Percent inhibition of Factor 11 mRNA at 6,000 nM: electroporation, 6,000 nM; for Percent inhibition of Factor 11 mRNA at 12,000 nM: electroporation, 12,000 nM; for IC50: Factor 11 mRNA expression
Protocol: These gapmers were tested at various doses in HepG2 cells. Cells were plated at a density of 20,000 cells per well and transfected using electroporation with 375 nM, 750 nM, 1,500 nM, 3,000 nM, 6,000 nM and 12,000 nM concentrations of antisense oligonucleotide, as specified in Table 47. After a treatment period of approximately 16 hours, RNA was isolated from the cells and Factor 11 mRNA levels were measured by quantitative real-time PCR. Human Factor 11 primer probe set RTS 2966 was used to measure mRNA levels. Factor 11 mRNA levels were adjusted according to total RNA content, as measured by RIBOGREEN. Results are presented as percent inhibition of Factor 11, relative to untreated control cells.
ISIS 416850, ISIS 416858, ISIS 445522, and ISIS 445531 (see Table 45 above) were re-tested in vitro along with the microwalk gapmers under the same conditions described above.
The first two listed gapmers in Table 47 are the original gapmers (ISIS 416850 and ISIS 416858) from which the remaining gapmers were designed via microwalk and are designated by an asterisk.

Factor 11 mRNA = Factor 11 mRNA in cynomolgus monkey liver, day 55 (Example 46); format: in vivo, cynomolgus monkeys; settings: 25 mg/kg subcutaneously, primer probe set LTS00301
Protocol: (§1) Groups, each consisting of two male and two female monkeys, were injected subcutaneously with 25 mg/kg of ISIS 416850, ISIS 449709, ISIS 445522, ISIS 449710, ISIS 449707, ISIS 449711, ISIS 449708, 416858, and ISIS 445531. Antisense oligonucleotide was administered to the monkeys at 25 mg/kg three times per week for week 1 and 25 mg/kg twice per week for weeks 2 to 8. A control group, consisting of two male and two female monkeys was injected subcutaneously with PBS according to the same dosing regimen. Body weights were taken 14 days and 7 days before the start of treatment and were then measured weekly throughout the treatment period. Blood samples were collected 14 days and 5 days before the start of treatment and subsequently several times during the dosing regimen for PT and aPTT measurements, and measurement of various hematologic factors. On day 55, the monkeys were euthanized by exsanguination while under deep anesthesia, and organs harvested for further analysis.
On day 55, RNA was extracted from liver tissue for real-time PCR analysis of Factor 11 using primer probe set LTS00301. Results are presented as percent inhibition of Factor 11, relative to PBS control.

Factor 11 protein = Factor 11 protein in monkey plasma by sandwich ELISA (Example 46); format: in vivo, cynomolgus monkeys; settings: 25 mg/kg subcutaneously
Protocol: as §1
Plasma samples from all monkey groups taken on different days were analyzed by a sandwich-style ELISA assay (Affinity Biologicals Inc.) using an affinity-purified polyclonal anti-Factor 11 antibody as the capture antibody and a peroxidase-conjugated polyclonal anti-Factor 11 antibody as the detecting antibody. Monkey plasma was diluted 1:50 for the assay. Peroxidase activity was expressed by incubation with the substrate o-phenylenediamine. The color produced was quantified using a microplate reader at 490 nm and was considered to be proportional to the concentration of Factor 11 in the samples.
The results are presented in Table 147, expressed as percentage reduction relative to that of the PBS control.

416848 (antisense CACAGTTTCTGGCAGGCCTC; 5-10-5 gapmer, further chemistry not given here) [compound 416848]
% inhibition (human Factor 11 mRNA [1]): 86% | Percent inhibition of human Factor 11 mRNA levels (human Factor 11 mRNA [2]): 87% | Half-Life in the liver [3]: 23.5 days | Half-life of ISIS oligonucleotides in the liver and kidney [4]: 24 days | Concentration [5]: 158 mg/mL | Viscosity [5]: 6 cP

416852 (antisense TGGTGCACAGTTTCTGGCAG; 5-10-5 gapmer, further chemistry not given here) [compound 416852]
% inhibition (human Factor 11 mRNA [1]): 84% | Percent inhibition of human Factor 11 mRNA levels (human Factor 11 mRNA [2]): 87% | Half-Life in the liver [3]: 28.4 days | Half-life of ISIS oligonucleotides in the liver and kidney [4]: 28 days | Concentration [5]: 169 mg/mL | Viscosity [5]: 29 cP

416859 (antisense GACGGCATTGGTGCACAGTT; 5-10-5 gapmer, further chemistry not given here) [compound 416859]
% inhibition (human Factor 11 mRNA [1]): 90% | Percent inhibition of human Factor 11 mRNA levels (human Factor 11 mRNA [2]): 85% | Half-Life in the liver [3]: 19.0 days | Half-life of ISIS oligonucleotides in the liver and kidney [4]: 19 days | Concentration [5]: 161 mg/mL | Viscosity [5]: 10 cP

416863 (antisense CAGCGGACGGCATTGGTGCA; 5-10-5 gapmer, further chemistry not given here) [compound 416863]
% inhibition (human Factor 11 mRNA [1]): 83% | Percent inhibition of human Factor 11 mRNA levels (human Factor 11 mRNA [2]): 86% | Half-Life in the liver [3]: 19.8 days | Half-life of ISIS oligonucleotides in the liver and kidney [4]: 20 days | Concentration [5]: 165 mg/mL | Viscosity [5]: 9 cP

416866 (antisense CTGGCAGCGGACGGCATTGG; 5-10-5 gapmer, further chemistry not given here) [compound 416866]
% inhibition (human Factor 11 mRNA [1]): 88% | Percent inhibition of human Factor 11 mRNA levels (human Factor 11 mRNA [2]): 84% | Half-Life in the liver [3]: 16.0 days | Half-life of ISIS oligonucleotides in the liver and kidney [4]: 16 days | Concentration [5]: 166 mg/mL | Viscosity [5]: >100 cP

449710 (antisense e[5mC]*eA*e[5mC]*dA*dG*dT*dT*dT*d[5mC]*dT*dG*dG*d[5mC]*eA*eG*eG) [compound 449710]
Percent inhibition of Factor 11 mRNA at 375 nM (human Factor 11 mRNA [6]): 2% | Percent inhibition of Factor 11 mRNA at 750 nM (human Factor 11 mRNA [6]): 21% | Percent inhibition of Factor 11 mRNA at 1,500 nM (human Factor 11 mRNA [6]): 52% | Percent inhibition of Factor 11 mRNA at 3,000 nM (human Factor 11 mRNA [6]): 70% | Percent inhibition of Factor 11 mRNA at 6,000 nM (human Factor 11 mRNA [6]): 82% | Percent inhibition of Factor 11 mRNA at 12,000 nM (human Factor 11 mRNA [6]): 87% | IC50 (human Factor 11 mRNA [6]): 1.59 µM | % inhibition of Factor 11 mRNA in liver relative to the PBS control (Factor 11 mRNA): 52% | Inhibition of Factor 11 protein relative to the PBS control (percentage reduction) (Factor 11 protein; Day 10, plasma): 10% | Inhibition of Factor 11 protein relative to the PBS control (percentage reduction) (Factor 11 protein; Day 17, plasma): 14% | Inhibition of Factor 11 protein relative to the PBS control (percentage reduction) (Factor 11 protein; Day 24, plasma): 17% | Inhibition of Factor 11 protein relative to the PBS control (percentage reduction) (Factor 11 protein; Day 31, plasma): 25% | Inhibition of Factor 11 protein relative to the PBS control (percentage reduction) (Factor 11 protein; Day 38, plasma): 20% | Inhibition of Factor 11 protein relative to the PBS control (percentage reduction) (Factor 11 protein; Day 45, plasma): 23% | Inhibition of Factor 11 protein relative to the PBS control (percentage reduction) (Factor 11 protein; Day 52, plasma): 4% | Inhibition of Factor 11 protein relative to the PBS control (percentage reduction) (Factor 11 protein; Day 55, plasma): 24% | Inhibition of Factor 11 protein relative to the PBS control (percentage reduction) (Factor 11 protein; Day −5, plasma): 0% | Inhibition of Factor 11 protein relative to the PBS control (percentage reduction) (Factor 11 protein; Day −14, plasma): 1% | Concentration [5]: 186 mg/mL | Viscosity [5]: 7 cP

449711 (antisense eA*e[5mC]*dA*dG*dT*dT*dT*d[5mC]*dT*dG*dG*d[5mC]*eA*eG) [compound 449711]
Percent inhibition of Factor 11 mRNA at 375 nM (human Factor 11 mRNA [6]): 6% | Percent inhibition of Factor 11 mRNA at 750 nM (human Factor 11 mRNA [6]): 14% | Percent inhibition of Factor 11 mRNA at 1,500 nM (human Factor 11 mRNA [6]): 1% | Percent inhibition of Factor 11 mRNA at 3,000 nM (human Factor 11 mRNA [6]): 7% | Percent inhibition of Factor 11 mRNA at 6,000 nM (human Factor 11 mRNA [6]): 32% | Percent inhibition of Factor 11 mRNA at 12,000 nM (human Factor 11 mRNA [6]): 52% | IC50 (human Factor 11 mRNA [6]): 11 µM | % inhibition of Factor 11 mRNA in liver relative to the PBS control (Factor 11 mRNA): 0% | Inhibition of Factor 11 protein relative to the PBS control (percentage reduction) (Factor 11 protein; Day 10, plasma): 5% | Inhibition of Factor 11 protein relative to the PBS control (percentage reduction) (Factor 11 protein; Day 17, plasma): 3% | Inhibition of Factor 11 protein relative to the PBS control (percentage reduction) (Factor 11 protein; Day 24, plasma): 6% | Inhibition of Factor 11 protein relative to the PBS control (percentage reduction) (Factor 11 protein; Day 31, plasma): 9% | Inhibition of Factor 11 protein relative to the PBS control (percentage reduction) (Factor 11 protein; Day 38, plasma): 2% | Inhibition of Factor 11 protein relative to the PBS control (percentage reduction) (Factor 11 protein; Day 45, plasma): 4% | Inhibition of Factor 11 protein relative to the PBS control (percentage reduction) (Factor 11 protein; Day 52, plasma): 3% | Inhibition of Factor 11 protein relative to the PBS control (percentage reduction) (Factor 11 protein; Day 55, plasma): 5% | Inhibition of Factor 11 protein relative to the PBS control (percentage reduction) (Factor 11 protein; Day −5, plasma): 1% | Inhibition of Factor 11 protein relative to the PBS control (percentage reduction) (Factor 11 protein; Day −14, plasma): 0% | Concentration [5]: 209 mg/mL | Viscosity [5]: 6 cP
